One may read the inhibition as the change of the read-out against control, counted positive when it falls. Lower therefore signals little suppression. As a reminder, the AUC is the area under the concentration-time curve, a measure of exposure. Read a low AUC as low exposure. As usually defined, the Ki is the equilibrium dissociation constant of an inhibitor or competing ligand from its target. A higher Ki goes with lower affinity. What is called IC50 is the concentration needed to halve the response being measured.

In series [1] the target is T1, unphosphorylated VEGF-R2Δ50 (FLVK) (Homo sapiens, UniProt P35968, DEL940-989/E990V).
T1 construct: VEGF-R2Δ50 contains residues 806-939 and 990-1171; made in house; host or cells: baculovirus/insect cell system
In words: VEGF-R2 coupled spectrophotometric assay, unphosphorylated construct (FLVK). In kind it is biochemical. The note with it: for inhibition at 0.05 µM: percent inhibition at 50 nM. In a few lines: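 Human VEGF-R2Δ50 cytosolic kinase (residues 806-939/990-1171, E990V), baculovirus-expressed, unphosphorylated form. PK/LDH-coupled NADH oxidation at 340 nm with 20 mM poly(E4Y1), 3 mM ATP, 60 mM MgCl2, 2 mM MnCl2, 200 mM HEPES pH 7.5, 5-40 nM enzyme; Ki fitted by Morrison equation.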

Series [2] in a line: Mouse PK assay. In kind it is in vivo, B6 female mice. Conditions: po; for AUC / Cmax: female, B6, mouse, plasma, 50 mg/kg; for Cmax: p.o., read-out: Mouse Cmax, po ng-h/mL. In a few lines: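 Plasma levels were measured by HPLC with UV detection after acetonitrile precipitation, using extracted standards, in blood taken up to 4 h (0.5, 1, 2, 4 h) post-dose. Dosing: 50 mg/kg orally or intraperitoneally to two groups of four female B6 mice, vehicle PEG 400:acidified H2O 30:70 suspension.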

Series [3] in a line: Human liver microsome (HLM) assay. In kind it is in vitro ADME. Conditions: human liver microsomes. The procedure:
Compound metabolism in human liver microsomes was measured by LC-MS analytical assay procedures as follows. First, human liver microsomes (HLM) were thawed and diluted to 5 mg/mL with cold 100 mM potassium phosphate (KPO4) buffer. Appropriate amounts of KPO4 buffer, NADPH-regenerating solution (containing B-NADP, glucose-6-phosphate, glucose-6-phosphate dehydrogenase, and MgCl2), and HLM were preincubated in 13×100 mm glass tubes at 37° C. for 10 min. (3 tubes per test compound—triplicate). Test compound (5 μM final) was added to each tube to initiate reaction and was mixed by gentle vortexing, followed by incubation at 37° C. […] Samples were centrifuged at 4000 rpm for 20 min. to precipitate proteins and salt (Beckman Allegra 6KR, S/N ALK98DO6, #634). Supernatant was transferred to new 12×75 mm glass tubes and evaporated by Speed-Vac centrifugal vacuum evaporator. Samples were reconstituted in 200 μL 0.1% formic acid/acetonitrile (90/10) and vortexed vigorously to dissolve. The samples were then transferred to separate polypropylene microcentrifuge tubes and centrifuged at 14000×g for 10 min. (Fisher Micro 14, S/N M0017580). […]
The combined compound samples were injected into the LC-MS system, composed of a Hewlett-Packard HP1100 diode array HPLC and a Micromass Quattro II triple quadruple mass spectrometer operating in positive electrospray SIR mode (programmed to scan specifically for the molecular ion of each test compound). Each test compound peak was integrated at each timepoint. […]
Background: Liver microsomes are a subcellular fraction often used to study metabolism.

The subject of series [4] is human umbilical vein endothelial cells (HUVEC). Description: HUVEC+VEGF proliferation assay. In kind it is cell-based. The note with it: Homo sapiens, HUVEC, 72 h, VEGF 6 ng/mL, MTT. In a few lines:
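HUVEC (passage 3-4), serum-starved 24 h in F12K + 1% FBS, were pre-treated with compound for 1 h (0.1% DMSO final). They were then stimulated with VEGF at 6 ng/mL final. Proliferation was measured after 72 h by MTT dye reduction (4 h), with absorbance read at 595 nm.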

T1 sequence (P35968 with tags, fused parts or gaps DEL940-989/E990V limits assumed): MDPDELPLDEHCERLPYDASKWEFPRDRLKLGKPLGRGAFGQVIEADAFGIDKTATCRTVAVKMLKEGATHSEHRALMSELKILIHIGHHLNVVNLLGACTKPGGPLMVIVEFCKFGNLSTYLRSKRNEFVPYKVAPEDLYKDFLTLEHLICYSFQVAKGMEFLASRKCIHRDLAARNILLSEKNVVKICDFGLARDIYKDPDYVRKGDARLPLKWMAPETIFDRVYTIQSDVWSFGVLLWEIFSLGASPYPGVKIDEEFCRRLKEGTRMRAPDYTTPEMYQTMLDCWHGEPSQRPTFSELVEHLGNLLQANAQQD

As to `Cc1cc2cc(Nc3ccnc4cc(-c5nccn5C)sc34)ccc2n1C(=O)NC(C)C` [Example 2f, 5-(2-[1-methyl-1H-imidazol-2-yl]thieno[3,2-b]pyridin-7-ylamino)-2-methylindole-1-carboxylic acid isopropylamide], in series [1], the inhibition at 0.05 µM is 2%. Moreover, in series [2], the AUC was found to be 10600 ng·h/mL; the Cmax stood at 7700 ng/mL; the “Mouse Cmin, po” value came to 163 ng/mL. Further, in series [3], the “% remain (HLM-NADPH, 0.5 h)” value is 70.9% and the “% remain (HLM-UDPGA, 0.5 h)” value turned out to be 119.4%.
On to `Cc1cc2cc(Nc3ccnc4cc(C(=O)N5CCC[C@H]5CO)sc34)ccc2n1C(=O)NC(C)C` [Example 2g, 5-(2-[(S)-2-(hydroxymethyl)pyrrolidine-1-carbonyl]thieno[3,2-b]pyridin-7-ylamino)-2-methylindole-1-carboxylic acid isopropylamide], for which, in series [1], the affinity corresponds to a Ki of 29.6 nM and the inhibition at 0.05 µM was determined as 82%. In series [4], the IC50 was more than 33.3 nM. In addition, in series [2], the AUC was found to be 542 ng·h/mL; the Cmax came out at 252 ng/mL; the “Mouse Cmin, po” value is 6 ng/mL. Further, in series [3], the “% remain (HLM-NADPH, 0.5 h)” value came out at 106% and the “% remain (HLM-UDPGA, 0.5 h)” value came out at 113.4%.
